Assay results from patent US20240268421A1, “FOOD COLOURING AGENTS” (v2food Pdy Ltd, priority 2020, published 2024).

Assays:
[1] = tested on: Caco-2/HT29-MTX-E12 transwell model; assay: Ferritin formation in intestinal barrier model (bioavailability of iron); format: cell-based, Human
Description: Human Caco-2(enterocytes) and HT29-MTX-E12 (goblet) cells grown on a semi-permeable membrane comprise the intestinal barrier model. The co-cultures were grown on transwells as described below: • Caco-2 cells and HT29-MTX-E12 cells flasks were passaged when ˜90% confluent. • Cells were counted using a haemocytometer (or Coulter counter) to determine cell number/mL. • 0.6 mL growth media (no cells) was added to basolateral chamber of transwells. • 0.2 mL Caco-2/HT29-MTX-E12 cell solution was carefully added into apical chamber to achieve 3.6×104 Caco-2 and 4×10^3 HT29-MTX cells. • Co-cultures were grown on transwells for 21 days with media changed every 2-3 days. • At 21 days transepithelial electric resistance (or TEER) was measured using a Millicell voltohmeter from the apical to basolateral chamber (FIG. 1). These measurements indicate integrity of cell layer ensuring the cells are polarised and an intact barrier is ready for experimentation. […] Treatments were removed, replaced with HBSS, and incubated overnight. • After 16-18 hours cells (on apical side) were washed with PBS before trypsin was applied to remove cells from transwell membranes. • Cells were collected by centrifuging for 5 minutes. • Abcam ferritin assay was conducted according to manufacturer's instructions.
Results from the ferritin assay were analysed for significant differences using unpaired t tests. Differences were deemed significant when P<0.05. All statistical analyses were performed using GraphPad Prism 5 software.
All samples treatments were performed in the presence of 80 μM ascorbic acid.

[2] = Differential scanning fluorometry (DSF) thermal denaturation of clarified phycoerythrin; format: physicochemical; conditions: heated 25-95° C. at 0.5° C./10 sec
Description: (§1) Therefore, to gain a precise measurement of the thermal denaturation temperature of phycoerythrin, differential scanning fluorometry (DSF) was undertaken by heating 100 uL of clarified phycoerythrin from 25-95° C. by increasing the temperature by 0.5° C./10 sec.

[3] = Iron binding by fluorescence emission scan; conditions: 1 mg/mL protein, 0-32 mM iron chloride, excitation 498 nm
Description: Phycoerythrin extract from Example 1 (extraction included ultrasound treatment) was dissolved at a concentration of 2 mg/mL in 20 mM sodium phosphate buffer, pH 7 containing 0.02% sodium azide. Iron (II) chloride was dissolved in the same buffer at an initial concentration of 100 mM. The dissolved phycoerythrin extract was mixed 1:1 with a concentration series of iron chloride to give a final protein concentration of 1 mg/mL and final iron chloride concentrations of 0, 0.25, 0.5, 1, 2, 4, 8, 16 and 32 mM.
A fluorescence emission scan from 515-700 nm using an excitation wavelength of 498 nm was then performed on all samples using a Thermofisher Varioskan Flash (Instrument version 4.00.52). R-phycoerythrin has an emission maximum of 575 nm and therefore if iron binding occurs with the linear tetrapyrrole moiety of the protein, a change in fluorescence will be observed.

[4] = Heating of phycoerythrin extracts, colour change visualised; format: physicochemical
Description: First, the crude, homogenised phycoerythrin, before clarification, was heated at 95° C. for 5 min and the colour change visualised.
as §1
Thermal denaturation of each Phycoerythrin sample (a)-(d) was undertaken. The results are depicted in FIG. 4.

[5] = 25 μM Fe solutions, with 4 mg/mL phycoerythrin, 80 μM ascorbic acid
[6] = 25 μM Fe solutions, with 8 mg/mL phycoerythrin, 80 μM ascorbic acid
[7] = 25 μM Fe solutions, without phycoerythrin, 80 μM ascorbic acid
[8] = 25 μM iron, co-treatment with 4 or 8 mg/mL phycoerythrin
[9] = 50 μM Fe solutions, with 4 mg/mL phycoerythrin, 80 μM ascorbic acid
[10] = 50 μM Fe solutions, with 8 mg/mL phycoerythrin, 80 μM ascorbic acid
[11] = 50 μM Fe solutions, without phycoerythrin, 80 μM ascorbic acid

Molecule | Ferritin [1, 5] [ng/mL] | Ferritin [1, 6] [ng/mL] | Ferritin [1, 7] [ng/mL] | Ferritin production compared to cells only treated with the iron solution [1, 8] | Ferritin [1, 9] [ng/mL] | Ferritin [1, 10] [ng/mL] | Ferritin [1, 11] [ng/mL] | Ferritin production compared to cells only treated with the iron solution ([1]; 50 μM iron, co-treatment with 4 mg/mL phycoerythrin) | Ferritin ([1]; No Fe, 4 mg/mL phycoerythrin (section of 25 μM Fe solutions)) [ng/mL] | Ferritin ([1]; No Fe, 8 mg/mL phycoerythrin (section of 25 μM Fe solutions)) | Ferritin ([1]; No Fe, 8 mg/mL phycoerythrin (section of 50 μM Fe solutions)) [ng/mL] | Ferritin production compared to treatment with iron solutions ([1]; only 4 mg/mL phycoerythrin, no added iron) | Ferritin production compared to treatment with ferric chloride ([1]; only 8 mg/mL phycoerythrin, no added iron) | Thermal denaturation temperature where phycoerythrin loses its fluorescence [2] [°C] | Change of fluorescence emission with iron [3] | Colour change upon heating ([4]; 60° C. and 70° C. for 1 hour) | Colour change upon heating ([4]; crude, homogenised, before clarification, 95° C. for 5 min)
[Cl][Fe][Cl] [Fe (II) chloride, Iron (II) chloride] | 15.8 ± 1.7 | 13.9 ± 1.8 | 4.4 ± 1.0 | significantly improved ferritin production | 10.1 ± 3.5 | 16.0 ± 5.9 | 5.2 ± 1.6 |  |  |  |  |  |  |  |  |  | 
[Cl][Fe]([Cl])[Cl] [Fe (III) chloride, Iron (III) chloride] | 12.7 ± 0.9 | 12.7 ± 1.1 | 3.3 ± 0.5 | significantly improved ferritin production | 13.0 ± 3.1 | 1.8 ± 0.6 | 1.7 ± 0.8 | significantly improved ferritin production |  |  |  |  |  |  |  |  | 
phycoerythrin |  |  |  |  |  |  |  |  | 12.2 ± 0.3 | 7.5 ± 1.6^ ng/mL | 2.5 ± 0.4 | significantly increased ferritin production | significantly increased ferritin | 77 | decrease in phycoerythrin fluorescence with increasing iron concentration | no colour change | turned from red to brown
